Data from patent US10323013B2, “Inhibitors of the IRE-1/XBP-1 pathway and methods of using thereof” (H. LEE MOFFITT CANCER CENTER AND RESEARCH INSTITUTE, INC., priority 2013, dated 2019).
Values joined by “and” are separate entries in the source; they are usually repeats but may differ in a detail not shown here. Equal entries are not always repeated. Where two headings read alike, the source gives them in different places.

Experiments:
[1] = system: XBP-1s expression; experiment: Inhibition of XBP-1s expression in LPS-stimulated mouse B cells (immunoblots); type: cell-based; settings: for inhibition of XBP-1s expression (in words): LPS 48 h, then inhibitor 20 μM for 24 h (Example 3 prints 20 mM); for inhibition of XBP-1 expression (in words): inhibitor 50 μM (b479 prints 50 mM), also Eμ-TCL1 CLL and WaC3 cells
Procedure: The protein concentrations of the supernatants were determined by BCA assay (Pierce). […] Proteins were transferred to nitrocellulose membranes, blocked in 5% milk (wt/vol in PBS), and immunoblotted with the indicated antibodies and appropriate horseradish peroxidase-conjugated secondary antibodies. Following multiple washes in PBS, the blots were developed using Western Lighting Chemiluminescence Reagent (Perkin-Elmer).
Protein concentrations were determined by BCA assays (Pierce). […] Proteins were transferred to nitrocellulose membranes, blocked in 5% non-fat milk (wt/vol in PBS), and immunoblotted with indicated primary antibodies and appropriate horseradish peroxidase-conjugated secondary antibodies. Immunoblots were developed using Western Lighting Chemiluminescence Reagent (Perkin-Elmer).

[2] = molecular target: recombinant hIRE-1 (Homo sapiens (Human), UniProt O75460); experiment: In vitro IRE-1 RNase FRET-suppression assay; type: biochemical
Chain of recombinant hIRE-1 (O75460 547-977): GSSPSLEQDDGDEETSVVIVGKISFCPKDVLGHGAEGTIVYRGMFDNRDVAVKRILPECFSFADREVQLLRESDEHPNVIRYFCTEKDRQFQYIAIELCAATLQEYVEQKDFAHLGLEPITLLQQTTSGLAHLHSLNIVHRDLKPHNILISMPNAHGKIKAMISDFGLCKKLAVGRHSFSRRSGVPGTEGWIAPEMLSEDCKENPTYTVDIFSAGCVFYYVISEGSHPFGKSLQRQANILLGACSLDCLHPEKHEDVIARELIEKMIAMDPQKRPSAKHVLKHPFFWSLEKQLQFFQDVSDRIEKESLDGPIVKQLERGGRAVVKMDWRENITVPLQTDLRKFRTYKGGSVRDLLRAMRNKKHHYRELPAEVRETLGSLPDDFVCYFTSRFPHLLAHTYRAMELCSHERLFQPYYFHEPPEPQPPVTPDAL
Procedure: Fluorescence was read at various time points using a Biotek Synergy H1 plate reader with excitation and emission at 620 nm and 680 nm, respectively. […] All fluorescence readings were corrected using background values from wells containing only 120 μL of 50 nM XBP-1 RNA.
Fluorescence was read at various time points using a Biotek Synergy H1 plate reader with excitation and emission at 620 nm and 680 nm, respectively. […] All fluorescence readings were corrected using background values from wells containing only 120 mL of 50 nM XBP-1 RNA.

[3] = Degradation (chemical stability) studies by HPLC/LCMS; type: physicochemical; settings: over 12 hours, rt
Procedure: The degradation of analog 24 was plotted as a function of time upon exposure to FRET-suppression assay buffer at rt. Aliquots were partitioned with MeOH and injected onto LCMS (UV monitored at 320 nm) and peaks integrated relative to internal standard.
A 20 mM stock solution of B-I09 in DMSO was diluted to 0.5 mM in FRET assay buffer (20 mM HEPES, pH 7.5, 50 mM KOAc, 0.5 mM MgCl2, 3 mM DTT, 0.4% PEG) or cell culture media (RPMI supplemented with 10% fetal bovine serum). The FRET assay buffer and cell culture media solutions were incubated at room temperature and 37° C., respectively. At various time points, a 50 μL aliquot of each solution was added to 50 μL of methanol and the mixture analyzed by analytical reverse-phase HPLC (C18 4 mm×150 mm column, 1 mL/min flow rate) with acetonitrile/water (0.1% formic acid) as eluent. Absorbance was read at 320 nm and the degradation product (aldehyde) was identified by LCMS and co-injection with pure synthetic sample. Degradation studies were carried out in duplicate and data points reported as the mean of two values.

[4] = system: XBP-1 mRNA splicing; experiment: XBP-1 mRNA splicing by RT-PCR; type: cell-based; settings: human WaC3 CLL cells, 24 h
Description: Total RNA was isolated using TRIzol reagent (Invitrogen). Complementary DNA was synthesized from RNA using Superscript II reverse transcriptase (Invitrogen).

[5] = system: Eμ-TCL1 mice with high CLL burden; type: in vivo; settings: A-I06 60 mg/kg i.p.
Procedure: Older Eμ-TCL1 mice (age >8 months) with high CLL burden in the peripheral blood were identified by examining the percentage of CLL cells in PBMCs. These mice then received intraperitoneal injections with A-I06 (60 mg/kg) dissolved in Cremophor® ELP (vehicle, Sigma). The progression of CLL was monitored by flow cytofluorometry.

[6] = system: primary human CLL cells; experiment: Cell proliferation XTT assay, primary human CLL cells; type: cell-based; settings: primary human CLL cells, 50 μM, 3 days
Procedure: (§1) Eμ-TCL1, MEC1, MEC2, WaC3, or primary human CLL cells were grown in 96-well cell culture plates overnight and then treated with fresh phenol red-free culture medium containing STF-083010 (50 μM), A-I06 (50 μM), A-I07 (50 μM) or fludarabine (30 μM). […] Briefly, 50 μl XTT labeling reagent was combined with 100 μl electron-coupling reagent, and the mixture was applied to each well of the 96-well plates. The test was based on cleavage of the yellow tetrazolium salt XTT by mitochondrial dehydrogenases of the metabolic active cells to form the orange formazan compound, which can be spectrophotometrically quantified at 492 nm using a BioTek microplate reader.

[7] = system: WaC3 cells; experiment: Cell proliferation XTT assay, WaC3; type: cell-based, human; settings: for growth response (in words): WaC3, 50 μM, course of 4 days
Procedure: as §1

[8] = system: Eμ-TCL1 CLL cells; experiment: Cell proliferation XTT assay, Eμ-TCL1 CLL cells; type: cell-based, mouse; settings: 50 μM, after 3 days
Procedure: as §1

[9] = system: MEC1 cells; experiment: Cell proliferation XTT assay, MEC1; type: cell-based, human; settings: MEC1, 50 μM, first 48 h
Procedure: as §1

[10] = system: Eμ-TCL1 CLL cells; experiment: Annexin V/DAPI flow cytofluorometry of cultured Eμ-TCL1 CLL cells; type: cell-based, mouse; settings: 50 μM or 100 μM for 24 h
Procedure: PBMCs were non-lethally obtained from mice following the submandibular bleed and RBC lysis (Qiagen). Nonspecific staining was first blocked for 30 min at 4° C. with 300 μl FBS per 1.0×10^6 cells. Cell surface staining was accomplished by 30-min incubation at 4° C. with 1 μl per 1.0×10^6 cells of the following anti-mouse antibodies: B220-Alexa488, CD19-APC-Cy7 (BD Pharmingen), IgM-Alexa568 (Invitrogen), CD5-APC (eBioscience) and CD138-PE (BD Pharmingen). Viability staining was accomplished using DAPI exclusion (10 μg/ml; 200 μl/1×10^6 cells) during acquisition. Apoptotic cells were detected by Annexin V-PE staining (BD Pharmingen). Acquisition of B-cell and CLL cell populations was performed on a LSRII cytometer (BD Biosciences) harboring a custom configuration for the H. Lee Moffitt Cancer Center & Research Institute, having multiple laser beams and detectors for excitation of various fluorophores and wide emission spectrum detection. Mid-range Spherotech FL1 fluorescent rainbow beads (BD Biosciences) were used to maintain consistent gains for all parameters across time points. Analysis of cytometry data was achieved using FlowJo software version 7.6.1 (Tree Star Inc.).

[11] = system: MEC2 cells; experiment: Cell proliferation XTT assay, MEC2; type: cell-based, human; settings: MEC2, 50 μM, first 48 h
Procedure: as §1

[12] = STF-083010 stability studies by RP-HPLC; type: physicochemical
Procedure: STF-083010 stability studies were performed using analytical reverse-phase high pressure liquid chromatography (RP-HPLC) with a C18 column (4 mm×150 mm) and a 10-90% linear gradient of acetonitrile in water (containing 0.1% formic acid) as eluent over 20 minutes (1 ml/min flow rate). Compounds were detected at λ=254 nm. Crystalline STF-083010 was analyzed on a standard Bruker X8 Apex2 CCD-based X-ray diffractometer, and the solid-state structure was solved and refined with the Bruker SHELXTL (version 6.12) software package. Diffraction data (excluding structure factors) for STF-083010 have been deposited with the Cambridge Crystallographic Data Centre as supplementary CCDC publication number 850879.

[13] = Aqueous solubility (stated in words); type: physicochemical
[14] = text values of Example 3, unit printed as mM, read-out: IC50 in FRET-suppression assay

`C=CCOC(=O)N1CCc2c(c(=O)oc3c(C=O)c(O)ccc23)C1` [Compound 21b, Allyl 7-formyl-8-hydroxy-5-oxo-4,5-dihydro-1H-chromeno[3,4-c]pyridine-3(2H)-carboxylate] showed an IC50 ([1]; Mus musculus, B-cell, LPS-stimulated B cells, 24 h, immunoblots, densitometry, approximate, read-out: IC50 for suppressing XBP-1s expression) of roughly 5.1 µM.

With `C=CCOC(=O)N1CCc2c(c(=O)oc3c(C=O)c(OCc4ccccc4)ccc23)C1` [Compound 27, allyl 7-formyl-8-benzyloxy-5-oxo-4,5-dihydro-1H-chromeno[3,4-c]pyridine-3(2H)-carboxylate] the “IRE-1 RNase inhibitory activity in FRET-suppression assay (in words)” value (“IRE-1 RNase inhibitory activity” below) [2] was “complete loss of potency below 20 mM” and the IC50 ([2]; In vitro IRE-1 RNase inhibition by analogs of 21b, FRET-suppression assay, read-out: IC50) was greater than 0.02 mM.

In the case of `C=CCOC(=O)N1CCc2c(c(=O)oc3c(C4OCCCO4)c(O)ccc23)C1` [Compound 24, allyl 7-(1,3-dioxan-2-yl)-8-hydroxy-5-oxo-4,5-dihydro-1H-chromeno[3,4-c]pyridine-3(2H)-carboxylate], the “decomposition of the 1,3-dioxane moiety in assay buffer (in words)” value [3] is reported as “no significant decomposition” and the “inhibition of splicing of XBP-1 mRNA (in words)” value [4] is reported as “highly effective”.

With `O=Cc1c(O)ccc2ccccc12` [A-I06, 2-hydroxynaphthaldehyde] the “apoptosis of CD5+/B220+ CLL cells in treated mice (in words)” value [5] was “increase of Annexin V+ apoptotic CD5+/B220+CLL cells”, the “apoptosis of CD5−/B220+ B cells in treated mice (in words)” value [5] was “does not induce CD5−/B220+ B cells to undergo apoptosis” and the “CLL burden (in words)” value ([5]; Day 0, 1, 12, 13) was “reduced CLL burden”. The “cytotoxic effect (in words)” value [6] was “significant cytotoxic effect”, the “growth response (in words)” value [7] was “gradually decreased growth” and the GI50 ([7]; read-out: GI50 (50% growth inhibition concentration), WaC3 cells, 48 h, XTT) was roughly 50 µM. For the same compound, the growth inhibition [8] was roughly 70%, the “inhibition of XBP-1s expression (in words)” value [1] was “requires a higher concentration to achieve complete inhibition” and the “inhibition of XBP-1 expression (in words)” value [1] was “can suppress the expression of XBP-1”. The “inhibition of XBP-1 expression (in words)” value ([1]; listed as 2) was “strong inhibition”, the growth inhibition [9] was roughly 20% and the “apoptosis (in words)” value [10] was “Increased apoptosis”. For the same compound, the “IRE-1 RNase inhibitory activity” value [2] was “weaker activity”, the IC50 [2, 14] was 9.73 mM and the growth inhibition [11] was roughly 20%.

In the case of `Cc1cc(=O)oc2c(C=O)c(O)ccc12` [Compound 4μ8C, 7-hydroxy-4-methyl-2-oxo-2H-chromene-8-carbaldehyde], the “inhibition of XBP-1s expression (in words)” value [1] is reported as “strong inhibition” and the IC50 ([2]; 5 nM hIRE-1, 50 nM XBP-1 RNA, read-out: IC50 in FRET-suppression assay) is reported as 0.000155 mM and 0.000206 mM.

In the case of `O=Cc1c(O)ccc2ccccc12` [A-I07], the “IRE-1 RNase inhibitory activity” value [2] is reported as “no appreciable inhibition at 20 mM”.

In the case of `O=S(=O)(N=Cc1c(O)ccc2ccccc12)c1cccs1` [STF-083010], the “cytotoxic effect (in words)” value [6] is reported as “significant cytotoxic effect”, the “growth response (in words)” value [7] is reported as “gradually decreased growth” and the growth inhibition [8] is reported as roughly 70%. For the same compound, the “inhibition of XBP-1 expression (in words)” value [1] was “can suppress the expression of XBP-1”, the growth inhibition [9] was roughly 20% and the “stability in 1:1 DMSO:water mixture (in words)” value ([12]; brief exposure) was “complete decomposition”. The “stability of DMSO stock solutions (in words)” value ([12]; repeated freeze-thaw cycles) was “readily hydrolyzed into precursors A-I06 and A-I07”, the IC50 [2, 14] was 9.94 mM and the growth inhibition [11] was roughly 20%.

With `N=C(N)N1CCc2c(c(=O)oc3c(C=O)c(O)ccc23)C1` [Compound 34, 7-Formyl-8-hydroxy-5-oxo-4,5-dihydro-1H-chromeno[3,4-c]pyridine-3(2H)-carboximidamide] the “inhibition of XBP-1s expression (in words)” value [1] was “did not effectively inhibit XBP-1s expression” and the “solubility (in words)” value [13] was “solubility decreased”.

With `O=S(=O)(NCc1c(O)ccc2ccccc12)c1cccs1` [B-A05] the “inhibition of XBP-1 expression (in words)” value [1] was “did not significantly alter XBP-1 expression”.
